“Also recorded” adds a separate entry of the source.
Assays:
[1] = target: DncV (Vibrio cholerae serotype O1, UniProt Q9KVG7); assay: DncV-mediated CDN synthesis kinetics monitored by HPLC; format: biochemical; design: made in house; host or cells: Escherichia coli BL21(DE3); settings: for k2/k3: product formation vs intermediate degradation; for k2 / k3 / k1: 500 μM NTP, DncV, 37° C., mean±SD; for k2: cyclization of intermediate to product; for k3: degradation of intermediate; for k1: first phosphodiester bond formation; for k1 derived from HPLC analysis: as quoted for comparison with kapp
Description: DncV generates CDNs through a series of sequential reactions, which are thought to involve a release-and-rebound process of the intermediate. [7b,17] After the first 3′,5′-phosphodiester bond formation, the linear dinucleotide pppNpN is released and oppositely rebound to the enzyme, after which the second 3′,5′-phosphodiester linkage is made. [7b,16b,18] To ultimately apply and interpret real-time fluorescence measurements, a better understanding of the enzymatic conversion of GTP and its analogues into the corresponding CDNs is therefore required. The reaction time course was consequently analyzed, paying particular attention to the accumulation and consumption of intermediates. DncV was incubated with GTP, tzGTP and thGTP, and the reactions containing each of the corresponding substrates were quenched with calf intestinal alkaline phosphatase (CIAP) at designated time points. The relative concentrations of the starting material (S), uncyclized intermediate (I) and product (P) were then monitored by HPLC. […] Taking into account the unique release-and-rebound process of the uncyclized dinucleotide intermediate, [16b,20] the kinetics of the DncV-mediated CDN syntheses was therefore analyzed according to the model in Scheme 1a and the differential Equations (1)-(4), in which S represents the starting NTP, I1 and I2 respectively represent intermediates pppNpN and degraded intermediate pNpN (I=I1+I2), and P represents the product CDN. Papp (apparent product) stands for the sum of all the dinucleotide species, including linear ones and cyclized products.
Differential Equations (1)-(4) d[S]/dt=−2k1[S]^2 (1) d[I1]/dt=k1[S]^2−[…] (2) d[P]/dt=k2[I3] (3) d[I2]/dt=k3[I1] (4)
[…] of the mixture was subjected to HPLC analysis after filtration. The reaction mixture was separated by Sepax Bio C-18 column (250×10 mm, 5 pmparticle size) with a gradient of 0.5%-25% of 10 mM TEAA, pH7 in Me0H in 20 min at 25° C. on an Agilent 1200 series HPLC system (Agilent Technologies).
(§1) Data Analysis and curve fitting. […] The relative concentrations were plotted against time.

[2] = target: T1, rocR (Pseudomonas aeruginosa, UniProt Q9HX69); assay: rocR-mediated CDN hydrolysis monitored by HPLC; format: biochemical, P. aeruginosa; settings: for k2 (cleavage reaction) / time to complete cleavage by rocR / k2 / k3 / k1: 100 nM rocR, 37° C.; for k2 / k3: Table 3; for k1: enzyme/substrate association; for order of gradually reduced rocR hydrolysis rate: FIG. 10F
T1 construct: made in house; host or cells: Escherichia coli BL21(DE3)
Description: [1a,27] rocR is a PDE that contains an EAL domain and specifically recognizes and cleaves c-di-GMP into the linear dinucleotide pGpG. […] [28a,29]
RocR is reported to follow Michaelis-Menten kinetics. [27c,28a] Scheme 2a was therefore used to analyze the reaction kinetics, where k1 and k−1 describe the enzyme/substrate association and dissociation, respectively, while k2 reflects the cleavage reaction. Equations (10)-(13) were thus used to extract the rate constants. When “asymmetrical” mixed c-di-GMP analogues are treated with rocR, the enzyme may, in principle, recognize and cleave either phosphodiester bonds, producing pN1pN2 and pN2pN1. Assuming the two products result from different binding orientation of the heterodimeric CDNs, Scheme 2b is therefore introduced to model the cleavage reactions, where k1, k−1 and k2 reflect the association/dissociation and cleavage of the heterodimeric CDN in one orientation, respectively, and k3, k−3 and k4 reflect the other. Equations (14)-(19) were used to extract the rate constants.
Equations(10)-(19) d[S]/dt=−k1[E][S]+k−1[ES] (10) d[E]/dt=−k1[E][S]+k−1[ES]+k2[ES] (11) d[P]/dt=k2[ES] (12) d[ES]/dt=k1[E][S]−k−1[ES]−k2[ES] (13) d[S]/dt=−k1[E][S]+k−1[ES1]−k3[E][S]+k−3[ES2] (14) d[P1]/dt=k2[ES1] (15) d[P2]/dt=k4[ES2] (16) d[E]/dt=−(k1+k3)[E][S]+(k−1+k2)[ES1]+[…][ES2]] (17) d[ES1]/dt=k1[E][S]−k−1[ES1]−k2[ES1] (18) d[ES2]/dt=k3[E][S]−k−3[ES2]−k4[ES2] (19)
CDN hydrolysis with rocR. […] of CDN was incubated with 100 nM of rocR in a buffer containing 100 mM Tris-HCI, pH 8, 20 mM KCI, 25 mM MgCl2 at 37° C. Aliquots of the reaction mixture were taken out at designated time points and quenched with 100 mM CaCl2. All aliquots were filtered before subjected to reverse-phase HPLC analysis. The reaction mixture was separated by Sepax Bio C-18 column (250×10 mm, 5 µm particle size) with a gradient of 0.1-15% of 10 mM NH4OAc, pH7 in Me0H in 12 minutes at 25° C. or 50° C. (only for reactions of c-GtzGMP and c-di-tzGMP) on an Agilent 1200 series HPLC system (Agilent Technologies).
as §1

DncV, sequence (Q9KVG7 whole entry): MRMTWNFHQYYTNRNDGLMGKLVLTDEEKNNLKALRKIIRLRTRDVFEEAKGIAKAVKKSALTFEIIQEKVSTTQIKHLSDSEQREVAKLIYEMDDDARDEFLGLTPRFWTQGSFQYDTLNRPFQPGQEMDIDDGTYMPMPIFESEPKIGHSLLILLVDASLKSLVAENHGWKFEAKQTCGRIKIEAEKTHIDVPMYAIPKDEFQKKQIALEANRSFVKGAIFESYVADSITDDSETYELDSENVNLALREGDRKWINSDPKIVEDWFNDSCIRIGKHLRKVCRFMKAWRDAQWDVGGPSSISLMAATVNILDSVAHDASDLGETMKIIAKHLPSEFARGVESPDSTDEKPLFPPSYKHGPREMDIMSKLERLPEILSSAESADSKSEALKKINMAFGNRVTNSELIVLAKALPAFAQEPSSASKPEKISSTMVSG
T1 sequence (Q9HX69 whole entry): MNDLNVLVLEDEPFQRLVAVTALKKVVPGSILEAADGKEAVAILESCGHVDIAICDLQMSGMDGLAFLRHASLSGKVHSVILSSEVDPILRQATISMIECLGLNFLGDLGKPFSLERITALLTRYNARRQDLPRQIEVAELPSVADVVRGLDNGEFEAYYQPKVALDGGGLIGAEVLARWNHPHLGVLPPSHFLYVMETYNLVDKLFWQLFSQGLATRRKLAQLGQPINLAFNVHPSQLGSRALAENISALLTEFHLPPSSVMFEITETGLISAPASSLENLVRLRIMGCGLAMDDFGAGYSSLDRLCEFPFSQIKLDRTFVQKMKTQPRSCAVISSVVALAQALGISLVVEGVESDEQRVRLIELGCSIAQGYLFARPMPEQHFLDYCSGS

Row | Structure (SMILES) | k2/k3 [1] | k2 (cleavage reaction) [2] [s⁻¹] | time to complete cleavage by rocR [2] [min] | k2 [2] [s⁻¹] | k3 [2] [s⁻¹] | k1 [2] [M⁻¹ s⁻¹] | order of gradually reduced rocR hydrolysis rate [2] | k2 [1] | k2 ([1]; listed as c-di-tzGMP) | k3 [1] | k3 ([1]; listed as c-di-tzGMP) | k1 [1] | k1 ([1]; listed as c-di-tzGMP) | k1 derived from HPLC analysis [1] [M⁻¹ s⁻¹] | products of rocR-mediated cleavage ([2]; mixed CDNs, HPLC) | k2 ([1]; listed as c-di-thGMP) | k3 ([1]; listed as c-di-thGMP) | k1 ([1]; listed as c-di-thGMP) | cleavage by rocR ([2]; after 40 min of incubation with rocR)
1 | Nc1nc2c(ncn2[C@@H]2O[C@@H]3COP(=O)(O)O[C@H]4[C@@H](O)[C@H](n5cnc6c(=O)[nH]c(N)nc65)O[C@@H]4COP(=O)(O)O[C@H]3[C@H]2O)c(=O)[nH]1 [c-di-GMP, reference compound] | 116 | 0.76 ± 0.03 | ~3 | 1.15 ± 0.21 | 0.76 ± 0.03 | 3.96e+06 ± 70000 | c-di-GMP, c-di-^tzGMP, c-G^tzGMP, c-G^thGMP and lastly c-di-^thGMP | – | – | – | – | – | – | – | – | – | – | – | –
2 | Nc1nc2c([C@@H]3O[C@@H]4COP(=O)(O)O[C@H]5[C@@H](O)[C@H](c6snc7c(=O)[nH]c(N)nc67)O[C@@H]5COP(=O)(O)O[C@H]4[C@H]3O)snc2c(=O)[nH]1 [c-di-^tzGMP] | 26 | 0.83 ± 0.55 | ≤ 20 | 0.099 ± 0.07 | 0.83 ± 0.55 | 43000 ± 20000 | c-di-GMP, c-di-^tzGMP, c-G^tzGMP, c-G^thGMP and lastly c-di-^thGMP | (3.4 ± 0.2) × 10^−3 s^−1 | (3.4±0.2)×10^−3 s^−1 | (1.3 ± 0.1) × 10^−4 s^−1 | (1.3±0.1)×10^−4 s^−1 | (1.26 ± 0.07) × 10^−6 μM^−1s^−1 | (1.26±0.07)×10^−6 μM^−1s^−1 | 1.26 ± 0.07 | – | – | – | – | –
3 | Nc1nc2c([C@@H]3O[C@@H]4COP(=O)(O)O[C@H]5[C@@H](O)[C@H](n6cnc7c(=O)[nH]c(N)nc76)O[C@@H]5COP(=O)(O)O[C@H]4[C@H]3O)scc2c(=O)[nH]1 [c-G^thGMP] | – | – | – | 0.033 ± 0.001 | 5 ± 0.57 | 21000 ± 1000 | c-di-GMP, c-di-^tzGMP, c-G^tzGMP, c-G^thGMP and lastly c-di-^thGMP | – | – | – | – | – | – | – | a single product | – | – | – | –
4 | Nc1nc2c([C@@H]3O[C@@H]4COP(=O)(O)O[C@H]5[C@@H](O)[C@H](c6scc7c(=O)[nH]c(N)nc67)O[C@@H]5COP(=O)(O)O[C@H]4[C@H]3O)scc2c(=O)[nH]1 [c-di-^thGMP] | 8.0 | – | – | – | – | – | c-di-GMP, c-di-^tzGMP, c-G^tzGMP, c-G^thGMP and lastly c-di-^thGMP | (2.32 ± 0.05) × 10^−4 s^−1 | – | (2.91 ± 0.01) × 10^−5 s^−1 | – | (3.08 ± 0.03) × 10^−7 μM^−1s^−1 | – | 0.31 ± 0.03 | – | (2.32±0.05)×10^−3 s^−1 | (2.91±0.01)×10^−5 s^−1 | (3.08±0.03)×10^−7 μM^−1s^−1 | No cleaved c-di-^thGMP was observed; also recorded: did not produce observable amounts of cleaved c-di-^thGMP products

Reference: patent US11702442B2, “Cyclic dinucleotide compounds as sting agonists” (The Regents of the University of California, priority 2019, dated 2023)
